Results: ChEMBL document CHEMBL5257038, “Active Natural Product Scaffolds against Trypanosomatid Parasites: A Review” (J Nat Prod, 2018)
pEC50: −log10 of the molar value. Positions of bridges follow the written chain, without caps; N, C: chain ends. Non-standard residues stand in square brackets, D forms with d. Residues, ends and D or L forms follow the SMILES beside them. ξ: configuration not given here. ξK = NCCCCC(N)C(=O)O

Legend:
[1] = tested on: Trypanosoma brucei brucei; test: Antitrypanosomal activity against bloodstream form of Trypanosoma brucei brucei assessed as reduction in parasite growth; type: functional, organism-based
Leishmania donovani [2] = test: Antileishmanial activity against Leishmania donovani promastigotes assessed as parasite growth inhibition; type: functional, organism-based
Trypanosoma brucei = test: Antitrypanosomal activity against bloodstream form of Trypanosoma brucei assessed as parasite growth inhibition; type: functional, organism-based
[3] = Selectivity index, ratio of IC50 for cytotoxicity against mouse peritoneal macrophage cells to IC50 for antileishmanial activity against Leishmania donovani promastigotes; type: toxicity, cell-based; settings: read-out: Ratio IC50
[4] = Selectivity index, ratio of IC50 for cytotoxicity against mouse peritoneal macrophage cells to IC50 for antitrypanosomal activity against bloodstream form of Trypanosoma brucei; type: toxicity, cell-based; settings: read-out: Ratio IC50
[5] = tested on: Trypanosoma brucei rhodesiense; test: Antitrypanosomal activity against bloodstream form of Trypanosoma brucei rhodesiense assessed as parasite growth inhibition; type: functional, organism-based
[6] = Selectivity index, ratio of IC50 for cytotoxicity against rat L6 cells to IC50 for antitrypanosomal activity against bloodstream form of Trypanosoma brucei rhodesiense; type: toxicity, cell-based; settings: read-out: Ratio IC50
Leishmania donovani [7] = test: Antileishmanial activity against amastigote form of Leishmania donovani assessed as parasite growth inhibition; type: functional, organism-based
Trypanosoma cruzi [8] = test: Antitrypanosomal activity against intracellular Trypanosoma cruzi amastigote assessed as reduction in parasite growth; type: functional, organism-based
Leishmania infantum [9] = test: Antileishmanial activity against amastigote stage of Leishmania infantum; type: functional, organism-based
Leishmania major = test: Antileishmanial activity against Leishmania major promastigotes assessed as parasite growth inhibition; type: functional, organism-based
[10] = tested on: Trypanosoma brucei brucei; test: Antitrypanosomal activity against Trypanosoma brucei brucei; type: functional, organism-based
[11] = Selectivity index, ratio of IC50 for cytotoxicity against human T98G cells to IC50 for antitrypanosomal activity against Trypanosoma brucei brucei; type: toxicity, cell-based; settings: read-out: Ratio IC50
Trypanosoma cruzi [12] = test: Antitrypanosomal activity against epimastigote form of Trypanosoma cruzi assessed as reduction in parasite growth; type: functional, organism-based
Trypanosoma cruzi [13] = test: Antitrypanosomal activity against trypomastigote form of Trypanosoma cruzi assessed as reduction in parasite growth; type: functional, organism-based
Leishmania infantum [14] = test: Antileishmanial activity against promastigote stage of Leishmania infantum; type: functional, organism-based
THP-1 = test: Cytotoxicity against human THP-1 cells; type: functional, cell-based
[15] = Selectivity index, ratio of IC50 for cytotoxicity against rat L6 cells to IC50 for antileishmanial activity against amastigote form of Leishmania donovani; type: toxicity, cell-based; settings: read-out: Ratio IC50
[16] = Selectivity index, ratio of IC50 for cytotoxicity against rat L6 cells to IC50 for antitrypanosomal activity against intracellular Trypanosoma cruzi amastigote; type: toxicity, cell-based; settings: read-out: Ratio IC50
Leishmania donovani [17] = test: Antileishmanial activity against Leishmania donovani promastigotes infected in golden hamster assessed as reduction in parasite load in spleen at 3.5 mg/kg administered twice per week for 4 weeks relative to control; type: functional; parameters: scale not given: the % may be the effect or the level left
[18] = Selectivity index, ratio of CC50 for cytotoxicity against rat L6 cells to IC50 for antitrypanosomal activity against bloodstream form of Trypanosoma brucei rhodesiense; type: toxicity, cell-based; settings: read-out: Ratio CC50/IC50
Trypanosoma cruzi [19] = test: Antitrypanosomal activity against Trypanosoma cruzi amastigote; type: functional, organism-based
[20] = Selectivity index, ratio of IC50 for cytotoxicity against African green monkey Vero cells to IC50 for antitrypanosomal activity against Trypanosoma cruzi amastigote; type: toxicity, cell-based; settings: read-out: Ratio IC50

Compound: O=c1c(O[C@@H]2O[C@H](CO)[C@@H](O)[C@H](O)[C@H]2O)c(-c2cc(O)c(O)c(O)c2)oc2cc(O)cc(O)c12
- pEC50 [1]: 4.88

Compound: Cn1c2c3cc(Br)ccc3nc-2cc2cc(Br)ccc21
- pEC50 (Leishmania donovani [2]): 6.30
- pEC50 (Trypanosoma brucei): 8.54
- selectivity ratio [3]: 18
- selectivity ratio [4]: 2080

Compound: COc1ccc2c(=O)cc(-c3ccccc3)oc2c1OC
- pEC50 [5]: 4.67
- selectivity ratio [6]: 5

Compound: C[C@@H]1O[C@@H](Oc2cc(O)c3c(=O)c(O)c(-c4ccc(O)c(O)c4)oc3c2)[C@H](O)[C@H](O)[C@H]1O
- pEC50 [1]: 4.70

Compound: C/C=C(\C)C(=O)O[C@@H]1CC([C@@H](O)C2=CC3OC(=O)C4=C3[C@H]2[C@H]2OC(=O)[C@H](C)[C@@H]2[C@H](OC(=O)/C(C)=C/C)C4)=C2C(=O)C=C(C)[C@@H]2[C@H]2OC(=O)[C@H](C)[C@@H]21 (stereo partly drawn)
- pEC50 [5]: 5.35
- pEC50 (Leishmania donovani [7]): 4.99
- pEC50 (Trypanosoma cruzi [8]): 4.52

Compound: C/C=C(\C)C(=O)O[C@@H]1CC(C(=O)O)=C2C(=O)C=C(C)[C@@H]2[C@H]2OC(=O)[C@H](C)[C@@H]21
- pEC50 [5]: 4.68

Compound: O=c1c(O)c(-c2cc(O)c(O)c(OS(=O)(=O)O)c2)oc2cc(O)cc(O)c12
- pEC50 [1]: 4.67

Compound: C=C1CC[C@H]2C(C)(C)CCC[C@]2(C)[C@H]1CC/C(C)=C/Cn1c[n+](C)c2ncnc(N)c21
- pEC50 [1]: 5.74
- pEC50 (Trypanosoma cruzi [8]): 5.05
- pEC50 (Leishmania infantum [9]): 5.52

Compound: C=C(C)C(=O)O[C@H]1CC2=C[C@@H](C/C(C)=C/[C@H]3OC(=O)C(=C)[C@H]13)OC2=O
- pEC50 [5]: 7.15
- pEC50 (Leishmania major): > 6.55

Compound: CC/C=C(C)\C=C\CCC[C@]1(OC)C[C@H](C)[C@H](CC(=O)OC)OO1
- pEC50 [5]: 7.49
- selectivity ratio [6]: > 350

Compound: Cc1cc(O[C@@H]2O[C@@H](C)[C@H](O)[C@@H](O)[C@H]2O)c2c(c1)cc(O[C@@H]1O[C@@H](C)[C@H](O)[C@@H](O)C1O)c1c(=O)c3c(O)cccc3oc12 (stereo partly drawn)
- pEC50 [1]: 4.81

Compound: CC1=C\C=C\C[C@H](C)NC(=O)/C=C/C=C/C=C/[C@H](C)[C@@H](O)[C@H](O)[C@H](O)C[C@@H](O)\C=C\C=C\C(C)=C\1
- pEC50 [10]: 5.21
- selectivity ratio [11]: 11

Compound: CO[C@@]1(CCCC2(O)C=C(C)C(C)O2)C[C@H](C)[C@H](CC(=O)O)OO1 (stereo partly drawn)
- pEC50 [5]: 6.77
- pEC50 [1]: 7.31

Compound: CC1=C\C=C\C[C@H](C)NC(=O)/C=C/C=C/C=C/[C@H](C)[C@@H](O)[C@H](O)[C@H](O)C[C@@H](O)/C=C\C=C\C(C)=C\1
- pEC50 [10]: 6.10
- selectivity ratio [11]: 83

Compound: CO/N=c1\[n-]cnc2c1n(C/C=C(\C)CCC=C(C)C)c[n+]2C
- pEC50 [1]: 6.30
- pEC50 (Trypanosoma cruzi [8]): > 6.60
- pEC50 (Leishmania infantum [9]): 5.70

Compound: CC/C=C(C)/C=C/CCC[C@]1(OC)C[C@H](C)[C@H](CC(=O)O)OO1
- pEC50 [5]: 5.24
- selectivity ratio [6]: 3.8

Compound: CC[C@H](C)[C@@H]1NC(=O)CNC(=O)[C@H](CCCNC(=N)N)NC(=O)[C@H](Cc2ccc(O)cc2)NC(=O)[C@@H]2CSSC[C@H](NC1=O)C(=O)N[C@@H](Cc1ccc(O)cc1)C(=O)N[C@@H](CCCNC(=N)N)C(=O)N[C@@H](CCCNC(=N)N)C(=O)N[C@H](C(=O)N[C@@H](CCCNC(=N)N)C(N)=O)CSSC[C@H](NC(=O)[C@H](Cc1c[nH]c3ccccc13)NC(=O)C(N)CCCCN)C(=O)N[C@@H](Cc1ccccc1)C(=O)N[C@@H](CCCNC(=N)N)C(=O)N[C@@H](C(C)C)C(=O)N2 (stereo partly drawn) (H-[ξK]WCFRVCYRGICYRRCR-NH2; disulfide 3-16, 7-12)
- pEC50 (Trypanosoma cruzi [12]): 4.32
- pEC50 (Trypanosoma cruzi [13]): 5.03

Compound: O=c1cc(-c2ccccc2)oc2c(O)c(O)ccc12 [7,8-DIHYDROXYFLAVONE]
- pEC50 [5]: 6.57
- selectivity ratio [6]: 116

Compound: C[C@@H]1[C@H](O)[C@@H](C)/C=C/C=C/C=C/C=C/C=C/C=C/C=C/[C@H](O[C@@H]2O[C@H](C)[C@@H](O)[C@H](N)[C@@H]2O)C[C@@H]2O[C@](O)(C[C@@H](O)C[C@@H](O)[C@H](O)CC[C@@H](O)C[C@@H](O)CC(=O)O[C@H]1C)C[C@H](O)[C@H]2C(=O)O [AMPHOTERICIN B]
- pEC50 (Leishmania infantum [14]): 7.40
- pEC50 (THP-1): 5.70

Compound: COc1ccc(-c2oc3cc(OC)c(OC)c(O)c3c(=O)c2OC)cc1OC [ARTEMETIN]
- pEC50 [5]: 4.92
- selectivity ratio [6]: 9.8

Compound: O=C(Cn1ccnc1[N+](=O)[O-])NCc1ccccc1 [BENZNIDAZOLE]
- pEC50 (Trypanosoma cruzi [12]): 5.03

Compound: COc1cccc2oc3c(Cl)c(O)c([C@H]4CCC[C@@H](C)O4)c(O)c3c(=O)c12 [CHAETOXANTHONE C]
- pEC50 [5]: 3.96
- pEC50 (Leishmania donovani [2]): 5.10
- pEC50 (Trypanosoma cruzi [8]): 5.42

Compound: CCCCCCC1CCCC(C2CCC([C@H]3CC[C@H]([C@H](O)CCCCCCCCCCCCC4=C[C@H](C)OC4=O)O3)O2)O1 (stereo partly drawn) [CHAMUVARININ]
- pEC50 [1]: 5.89

Compound: C[n+]1c2ccccc2cc2[n-]c3ccccc3c21 [CRYPTOLEPINE]
- pEC50 (Leishmania donovani [2]): 5.80
- pEC50 (Trypanosoma brucei): 6.52
- selectivity ratio [3]: 0.7
- selectivity ratio [4]: 29.3

Compound: O=c1c(O)c(-c2ccccc2)oc2ccccc12 [FLAVONOL]
- pEC50 [5]: 5.66
- pEC50 (Leishmania donovani [7]): 5.52
- pEC50 (Trypanosoma cruzi [8]): 4.48
- selectivity ratio [15]: 21
- selectivity ratio [6]: 29
- selectivity ratio [16]: 2

Compound: C=C1C(=O)O[C@H]2C[C@@](C)(O)C3=CC[C@](C)(O)[C@@H]3C[C@H]12 [GUAIANOLIDE]
- pEC50 (Trypanosoma cruzi [12]): 4.74
- pEC50 (Trypanosoma cruzi [8]): 4.17
- pEC50 (Trypanosoma cruzi [13]): 5.24

Compound: COc1cc(-c2oc3cc(O)cc(O)c3c(=O)c2O)ccc1O [ISORHAMNETIN]
- selectivity ratio [15]: 10.7
- selectivity ratio [6]: 4.6

Compound: O=c1cc(-c2ccc(O)c(O)c2)oc2cc(O)cc(O)c12 [LUTEOLIN]
- pEC50 [5]: 4.85
- pEC50 (Leishmania donovani [7]): 5.55
- selectivity ratio [15]: 12
- selectivity ratio [6]: 3
- Activity (Leishmania donovani [17]): 80%

Compound: CC/C=C(C)/C=C/CCC[C@]1(OC)C[C@H](C)[C@H](CC(=O)OC)OO1 [MANADOPEROXIDE B]
- pEC50 [5]: 8.06

Compound: CCCCCCCCCCCCCCCCOP(=O)([O-])OCC[N+](C)(C)C [MILTEFOSINE]
- pEC50 (Trypanosoma cruzi [12]): 6.04
- pEC50 (THP-1): 5.33

Compound: CC1CS(=O)(=O)CCN1/N=C/c1ccc([N+](=O)[O-])o1 (stereo not drawn) [NIFURTIMOX]
- pEC50 (Trypanosoma cruzi [12]): 5.82
- pEC50 (Leishmania donovani [2]): 7.62
- pEC50 (Leishmania donovani [7]): 8.40

Compound: NC[C@@H]1O[C@H](O[C@H]2[C@@H](O)[C@H](O[C@@H]3[C@@H](O)[C@H](N)C[C@H](N)[C@H]3O[C@H]3O[C@H](CO)[C@@H](O)[C@H](O)[C@H]3N)O[C@@H]2CO)[C@H](N)[C@@H](O)[C@@H]1O [PAROMOMYCIN]
- pEC50 [5]: 4.64
- pEC50 (Leishmania donovani [2]): 8.30
- pEC50 (Leishmania donovani [7]): 8.15

Compound: N=C(N)c1ccc(OCCCCCOc2ccc(C(=N)N)cc2)cc1 [PENTAMIDINE]
- pEC50 (THP-1): 4.80

Compound: Nc1nc([C@H]2[C@H](CNC(=O)c3cc(Br)c[nH]3)[C@@H](CNC(=O)c3cc(Br)c[nH]3)[C@@H]2c2c[nH]c(N)n2)c[nH]1 [SCEPTRIN]
- pEC50 [5]: 4.80
- pEC50 (Leishmania donovani [7]): 4.08
- pEC50 (Trypanosoma cruzi [8]): 4.02
- selectivity ratio [18]: > 10

Compound: COc1cc2c(c3oc4cccc(O)c4c(=O)c13)[C@@H]1C=CO[C@@H]1O2 [STERIGMATOCYSTIN]
- pEC50 (Trypanosoma cruzi [19]): 6.89
- selectivity ratio [20]: 0.46

Compound: CC(C)[C@@H]1NC(=O)[C@H](C)OC(=O)[C@@H](C(C)C)NC(=O)[C@@H](C(C)C)OC(=O)[C@H](C(C)C)NC(=O)[C@H](C)OC(=O)[C@@H](C(C)C)NC(=O)[C@@H](C(C)C)OC(=O)[C@H](C(C)C)NC(=O)[C@H](C)OC(=O)[C@@H](C(C)C)NC(=O)[C@@H](C(C)C)OC1=O [VALINOMYCIN]
- pEC50 [1]: 8.49
- pEC50 (Leishmania major): > 6.96
